According to PMC6345968, “Structural basis for species-selective targeting of Hsp90 in a pathogenic fungus” (Nature Communications, 2019):
“And” between values parts separate entries of the source, which are not always exact repeats. Equal entries are not always repeated. Where two headings read alike, the source gives them in different places.

Assays:
[1] = target: T1, C. albicans Hsp90 NBD (Candida albicans, UniProt P46598); assay: biochemical; format: binding
T1 construct: C. albicans Hsp90 (E7-K218); made in house; host or cells: E. coli Rosetta2

[2] = target: T2, Hsp90 in C. albicans (SC5314) lysate (Candida albicans, UniProt P46598); assay: biochemical; format: binding; conditions: for FP signal: raw
T2 construct: endogenous in cells; host or cells: C. albicans SC5314 whole-cell lysate

[3] = tested on: Hsp90 in 3T3 lysate; assay: FP competition in whole-cell lysate; format: binding, mouse; conditions: quiescent 3T3 cells, FP
Experimental: After vortexing, cell lysate was frozen at −80 °C for 2 h, followed by thawing on ice. The vortex-freeze-thaw step was repeated. […] Aliquots were thawed immediately prior to use.

[4] = tested on: Hsp90 in HEPG2 lysate; conditions: for FP signal (raw) / FP signal: HepG2 lysate; for FP signal: raw
[5] = tested on: 293T reporter cells
[6] = target: human Hsp90 NBD (Homo sapiens, UniProt P08238); assay: biochemical
[7] = target: human Grp94 NBD (Homo sapiens, UniProt P14625); assay: biochemical
[8] = SC5314 lysate, 0.457 nM compound
[9] = SC5314 lysate, 1.372 nM compound
[10] = SC5314 lysate, 4.115 nM compound
[11] = SC5314 lysate, 12.346 nM compound
[12] = SC5314 lysate, 37.037 nM compound
[13] = SC5314 lysate, 111.111 nM compound
[14] = SC5314 lysate, 333.333 nM compound
[15] = SC5314 lysate, 1000 nM compound
[16] = SC5314 lysate, 3000 nM compound
[17] = I50, single experiments Expt 1-3
[18] = IC50 (Equation 16), corrected I50, single experiments, unit inferred
[19] = Inhibitor Ki, single experiments Expt 1-3
[20] = Ki, purified NBD, Cy3-GdA probe, mean (± SEM) of 3 experiments

T2 sequence (P46598 whole entry): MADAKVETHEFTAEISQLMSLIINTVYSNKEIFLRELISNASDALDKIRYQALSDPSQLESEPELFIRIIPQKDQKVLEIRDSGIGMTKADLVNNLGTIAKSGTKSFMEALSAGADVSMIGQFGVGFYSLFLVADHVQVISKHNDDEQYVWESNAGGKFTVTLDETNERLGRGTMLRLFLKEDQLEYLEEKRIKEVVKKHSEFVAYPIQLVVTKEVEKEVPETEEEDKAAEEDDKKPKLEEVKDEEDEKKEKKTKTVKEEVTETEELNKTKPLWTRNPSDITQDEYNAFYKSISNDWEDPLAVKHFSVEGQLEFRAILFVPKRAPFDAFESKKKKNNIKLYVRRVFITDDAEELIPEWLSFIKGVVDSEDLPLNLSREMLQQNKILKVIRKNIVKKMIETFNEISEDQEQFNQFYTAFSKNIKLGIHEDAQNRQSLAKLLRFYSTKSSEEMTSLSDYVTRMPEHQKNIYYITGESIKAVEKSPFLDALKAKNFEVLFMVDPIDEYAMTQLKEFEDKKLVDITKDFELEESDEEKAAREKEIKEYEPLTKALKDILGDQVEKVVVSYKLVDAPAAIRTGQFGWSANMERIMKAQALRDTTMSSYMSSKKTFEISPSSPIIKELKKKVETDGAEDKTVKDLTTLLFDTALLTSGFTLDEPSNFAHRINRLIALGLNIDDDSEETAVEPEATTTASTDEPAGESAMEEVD
Chain of human Hsp90 NBD (P08238 1-223): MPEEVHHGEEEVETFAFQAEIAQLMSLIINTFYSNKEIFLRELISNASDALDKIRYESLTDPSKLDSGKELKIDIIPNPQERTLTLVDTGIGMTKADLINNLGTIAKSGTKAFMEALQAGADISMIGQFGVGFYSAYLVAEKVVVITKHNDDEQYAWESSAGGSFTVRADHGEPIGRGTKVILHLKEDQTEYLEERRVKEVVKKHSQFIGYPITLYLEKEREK
T1 sequence (P46598 7-218): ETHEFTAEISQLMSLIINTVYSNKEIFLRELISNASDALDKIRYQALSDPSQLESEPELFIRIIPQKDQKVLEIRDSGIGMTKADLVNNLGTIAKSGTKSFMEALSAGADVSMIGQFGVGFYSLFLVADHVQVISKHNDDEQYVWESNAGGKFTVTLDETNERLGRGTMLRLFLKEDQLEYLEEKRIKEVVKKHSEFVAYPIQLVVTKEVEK
Chain of human Grp94 NBD (P14625 63-337): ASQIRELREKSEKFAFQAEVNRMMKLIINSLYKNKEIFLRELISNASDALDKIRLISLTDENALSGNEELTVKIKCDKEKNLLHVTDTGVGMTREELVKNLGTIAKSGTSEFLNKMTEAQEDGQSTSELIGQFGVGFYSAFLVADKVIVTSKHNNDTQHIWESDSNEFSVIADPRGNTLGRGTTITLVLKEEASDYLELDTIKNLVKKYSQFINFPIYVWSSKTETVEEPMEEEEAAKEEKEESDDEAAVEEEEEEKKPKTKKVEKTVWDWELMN

Compound: COc1ccc(CON=C2C=CC=CC3OC3CC(C)OC(=O)c3c(O)cc(O)cc3C2)cc1 (stereo not drawn) [CMLD013075]
- IC50 ([1]; corrected I50, single experiments, unit inferred, read-out: IC50 (Equation 16)): 77.3 nM and 78.8 nM and 44 nM
- Ki ([1]; purified NBD, Cy3-GdA probe, mean (± SEM) of 3 experiments, read-out: Ki): 7.7 nM
- selectivity for fungal Hsp90 NBD over human Grp94 NBD ([1]; purified NBDs, FP): ~ 5 fold and 5 fold
- selectivity for fungal Hsp90 NBD over human Hsp90 NBD ([1]; purified NBDs, FP): ~ 28 fold and > 25 fold
- IC50 ([1]; single experiments Expt 1-3, read-out: I50): 82.3 nM and 83.8 nM and 47.8 nM
- Ki ([1]; single experiments Expt 1-3, read-out: Inhibitor Ki): 8.8 nM (2×) and 5.5 nM
- normalized fungal selectivity in lysates ([2]; C. albicans SC5314 vs HEPG2 lysate, FP): 4.6 fold
- relative binding affinity in fungal vs mammalian lysates ([2]; C. albicans vs HEPG2 and 3T3 lysates, FP): higher
- EC50 ([2]; EC50, SC5314 lysate, not normalized, oxime panel experiment 220817): 505 nM
- Ratio re. GdA ([2]; EC50 relative to GdA, SC5314 lysate): 29.6649
- FP signal (raw) ([2]; SC5314 lysate, 0.457 nM): 200
- FP signal relative to 0 nM [2, 8]: 0.9709
- FP signal [2, 8]: 200
- FP signal (raw) ([2]; SC5314 lysate, 1.372 nM): 200
- FP signal relative to 0 nM [2, 9]: 0.9709
- FP signal [2, 9]: 200
- FP signal (raw) ([2]; SC5314 lysate, 4.115 nM): 199
- FP signal relative to 0 nM [2, 10]: 0.966
- FP signal [2, 10]: 199
- FP signal (raw) ([2]; SC5314 lysate, 12.346 nM): 199
- FP signal relative to 0 nM [2, 11]: 0.966
- FP signal [2, 11]: 199
- FP signal (raw) ([2]; SC5314 lysate, 37.037 nM): 196
- FP signal relative to 0 nM [2, 12]: 0.9515
- FP signal [2, 12]: 196
- FP signal (raw) ([2]; SC5314 lysate, 111.111 nM): 182
- FP signal relative to 0 nM [2, 13]: 0.8835
- FP signal [2, 13]: 182
- FP signal (raw) ([2]; SC5314 lysate, 333.333 nM): 146
- FP signal relative to 0 nM [2, 14]: 0.7087
- FP signal [2, 14]: 146
- FP signal (raw) ([2]; SC5314 lysate, 1000 nM): 69
- FP signal relative to 0 nM [2, 15]: 0.335
- FP signal [2, 15]: 69
- FP signal (raw) ([2]; SC5314 lysate, 3000 nM): 40
- FP signal relative to 0 nM [2, 16]: 0.1942
- FP signal [2, 16]: 40
- HepG2/SC5314 ([2]; ratio of GdA-normalized EC50s, human over fungal lysate): 4.5595
- HepG2/SC5314 ([2]; ratio of GdA-relative EC50 ratios, HepG2 over SC5314): 4.5595
- relative binding affinity in 3T3 lysate vs HEPG2 lysate [3]: lower in 3T3 lysate than HEPG2 lysate
- Ratio rel. GdA (HepG2) ([4]; EC50 / EC50 of GdA in HepG2 lysate): 135.257
- Ratio rel. GdA (HepG2) ([4]; EC50 relative to GdA, HEPG2 lysate): 135.257
- FP signal, Fxn Control ([4]; HEPG2 lysate, log concentration 0.137354 (1.372 nM)): 0.9857
- FP signal, Fxn Control ([4]; HEPG2 lysate, log concentration 0.61437 (4.115 nM)): 0.9905
- FP signal, Fxn Control ([4]; HEPG2 lysate, log concentration 1.09153 (12.346 nM)): 1
- FP signal, Fxn Control ([4]; HEPG2 lysate, log concentration 1.56864 (37.037 nM)): 1.005
- FP signal, Fxn Control ([4]; HEPG2 lysate, log concentration 2.04576 (111.111 nM)): 0.9905
- FP signal, Fxn Control ([4]; HEPG2 lysate, log concentration 2.52288 (333.333 nM)): 0.9762
- FP signal, Fxn Control ([4]; HEPG2 lysate, log concentration 3 (1000 nM)): 0.8333
- FP signal, Fxn Control ([4]; HEPG2 lysate, log concentration 3.47712 (3000 nM)): 0.5286
- FP signal, Fxn Control ([4]; HEPG2 lysate, log concentration -0.340084 (0.457 nM)): 0.9857
- FP signal (raw) ([4]; 0.457 nM): 207
- FP signal ([4]; 0.457 nM compound): 207
- FP signal (raw) ([4]; 1.372 nM): 207
- FP signal ([4]; 1.372 nM compound): 207
- FP signal (raw) ([4]; 4.115 nM): 208
- FP signal ([4]; 4.115 nM compound): 208
- FP signal (raw) ([4]; 12.346 nM): 210
- FP signal ([4]; 12.346 nM compound): 210
- FP signal (raw) ([4]; 37.037 nM): 211
- FP signal ([4]; 37.037 nM compound): 211
- FP signal (raw) ([4]; 111.111 nM): 208
- FP signal ([4]; 111.111 nM compound): 208
- FP signal (raw) ([4]; 333.333 nM): 205
- FP signal ([4]; 333.333 nM compound): 205
- FP signal (raw) ([4]; 1000 nM): 175
- FP signal ([4]; 1000 nM compound): 175
- FP signal (raw) ([4]; 3000 nM): 111
- FP signal ([4]; 3000 nM compound): 111
- heat-shock reporter activation [5]: activation required much higher concentrations
- IC50 [6, 17]: 1650 nM and 1630 nM and 1250 nM
- IC50 [6, 18]: 1650 nM and 1620 nM and 1240 nM
- Ki [6, 19]: 237 nM and 236 nM and 181 nM
- Ki [6, 20]: 218 nM
- IC50 [7, 17]: 429 nM and 490 nM and 261 nM
- IC50 [7, 18]: 426 nM and 486 nM and 257 nM
- Ki [7, 19]: 43.6 nM and 48.9 nM and 26.4 nM
- Ki [7, 20]: 39.6 nM
